Columns and labels:
TLR7 = biological target: T1, TLR7 (Homo sapiens, UniProt Q9NYK1); test: Human PBMC cell-based assay, TLR7 agonist GS-986 stimulation, cytokine (IL-6 and IFNα) readout; conditions: human PBMCs, GS-986 400 nM, 6 hours; Table 26; read-out: TLR-7 EC50
T1 construct: lymphocytes, monocytes and dendritic cells that express TLR7, TLR8 and TLR9; endogenous in cells; host or cells: human PBMCs from healthy donors
T1 sequence (Q9NYK1 27-1049): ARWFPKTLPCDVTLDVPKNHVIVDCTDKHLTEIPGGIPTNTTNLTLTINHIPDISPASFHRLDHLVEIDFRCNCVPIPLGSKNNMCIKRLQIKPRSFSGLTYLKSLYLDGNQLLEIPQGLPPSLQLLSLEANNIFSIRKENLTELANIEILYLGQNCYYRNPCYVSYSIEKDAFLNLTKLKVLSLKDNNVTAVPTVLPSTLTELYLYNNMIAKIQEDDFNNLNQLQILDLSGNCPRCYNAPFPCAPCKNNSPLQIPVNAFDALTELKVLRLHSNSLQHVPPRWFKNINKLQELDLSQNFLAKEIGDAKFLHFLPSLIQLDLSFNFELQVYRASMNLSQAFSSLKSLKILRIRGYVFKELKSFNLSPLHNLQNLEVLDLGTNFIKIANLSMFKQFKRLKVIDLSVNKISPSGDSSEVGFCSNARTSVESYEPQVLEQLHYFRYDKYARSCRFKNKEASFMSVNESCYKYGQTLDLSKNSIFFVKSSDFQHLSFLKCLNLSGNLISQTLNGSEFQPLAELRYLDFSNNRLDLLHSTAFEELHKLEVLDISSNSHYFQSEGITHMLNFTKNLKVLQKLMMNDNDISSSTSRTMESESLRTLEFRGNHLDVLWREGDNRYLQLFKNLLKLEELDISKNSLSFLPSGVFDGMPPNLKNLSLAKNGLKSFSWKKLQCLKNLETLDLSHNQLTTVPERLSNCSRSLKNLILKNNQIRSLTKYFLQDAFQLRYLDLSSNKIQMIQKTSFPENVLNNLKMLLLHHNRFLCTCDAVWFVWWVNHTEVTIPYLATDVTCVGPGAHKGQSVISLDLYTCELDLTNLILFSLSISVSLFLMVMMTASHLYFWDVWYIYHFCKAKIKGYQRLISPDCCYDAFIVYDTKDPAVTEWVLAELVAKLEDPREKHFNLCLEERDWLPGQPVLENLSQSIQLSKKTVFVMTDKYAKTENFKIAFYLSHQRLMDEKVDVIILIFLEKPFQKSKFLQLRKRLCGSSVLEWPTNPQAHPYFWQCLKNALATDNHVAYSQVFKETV
From the text: (§1) Human peripheral blood mononuclear cells (PBMCs) consist of lymphocytes, monocytes and dendritic cells that express TLR7, TLR8 and TLR9. These cells respond to TLR7, TLR8 and TLR9 ligand stimulation and produce cytokines and chemokines in vitro and in vivo. Human PBMCs are therefore suitable to be used in a cell-based assay to assess the in vitro potency of a TLR 7, 8, and/or 9 antagonist. The result is expected to be more translatable to the pharmacodynamics response in vivo than cell line-based assays.
(§2) Cryopreserved human PBMCs from healthy donors were thawed and resuspended in RPMI-1640 media with L-glutamine (Corning) supplemented with 10% Fetal Bovine Serum (Hyclone) and 1X Penicillin-Streptomycin (Corning). After counting, the cell density was adjusted to 2 million cells/ml and incubated for 1 hour at 37° C., 5% CO2 for recovery. Following the recovery, the cells were plated by adding 50p per well (100,000 cells) to 384-well cell culture plates (Greiner) containing 250nl of test antagonists in 100% DMSO per well, in a 10 points dose response in quadruplicates. PBMCs were incubated in the presence of test antagonists for one hour at 37° C., 5% CO2 before being stimulated with a TLR7 or TLR9 agonist. GS-986 (Gilead Sciences) was used as the TLR7 agonist at a final concentration of 400 nM. ODN-2216 (InvivoGen) was used as the TLR9 agonist at a final concentration of 3μM. PBMCs were incubated in the presence of the test antagonist and the TLR7 (or TLR9) agonist for an additional 6 hours at 37° C., 5% CO2. At the end of the incubation, the cell culture plates were centrifuged at 500 g for 5 min, and the cell culture supernatant was collected. The level of cytokines (IL-6 and IFNα) in the supernatant was measured by electrochemiluminescence immunoassays (Mesoscale Discovery) following manufacturer's recommended protocols. The level of cytokine measured was plotted against the test antagonist concentration and fitted to a sigmoidal function to determine the EC50, which are shown below in Table 26.

TLR9 = biological target: T2, TLR9 (Homo sapiens, UniProt Q9NR96); test: Human PBMC cell-based assay, TLR9 agonist ODN-2216 stimulation, cytokine (IL-6 and IFNα) readout; conditions: human PBMCs, ODN-2216 3 μM, 6 hours; Table 26; read-out: TLR-9 EC50
T2 construct: lymphocytes, monocytes and dendritic cells that express TLR7, TLR8 and TLR9; endogenous in cells; host or cells: human PBMCs from healthy donors
T2 sequence (Q9NR96 26-1032): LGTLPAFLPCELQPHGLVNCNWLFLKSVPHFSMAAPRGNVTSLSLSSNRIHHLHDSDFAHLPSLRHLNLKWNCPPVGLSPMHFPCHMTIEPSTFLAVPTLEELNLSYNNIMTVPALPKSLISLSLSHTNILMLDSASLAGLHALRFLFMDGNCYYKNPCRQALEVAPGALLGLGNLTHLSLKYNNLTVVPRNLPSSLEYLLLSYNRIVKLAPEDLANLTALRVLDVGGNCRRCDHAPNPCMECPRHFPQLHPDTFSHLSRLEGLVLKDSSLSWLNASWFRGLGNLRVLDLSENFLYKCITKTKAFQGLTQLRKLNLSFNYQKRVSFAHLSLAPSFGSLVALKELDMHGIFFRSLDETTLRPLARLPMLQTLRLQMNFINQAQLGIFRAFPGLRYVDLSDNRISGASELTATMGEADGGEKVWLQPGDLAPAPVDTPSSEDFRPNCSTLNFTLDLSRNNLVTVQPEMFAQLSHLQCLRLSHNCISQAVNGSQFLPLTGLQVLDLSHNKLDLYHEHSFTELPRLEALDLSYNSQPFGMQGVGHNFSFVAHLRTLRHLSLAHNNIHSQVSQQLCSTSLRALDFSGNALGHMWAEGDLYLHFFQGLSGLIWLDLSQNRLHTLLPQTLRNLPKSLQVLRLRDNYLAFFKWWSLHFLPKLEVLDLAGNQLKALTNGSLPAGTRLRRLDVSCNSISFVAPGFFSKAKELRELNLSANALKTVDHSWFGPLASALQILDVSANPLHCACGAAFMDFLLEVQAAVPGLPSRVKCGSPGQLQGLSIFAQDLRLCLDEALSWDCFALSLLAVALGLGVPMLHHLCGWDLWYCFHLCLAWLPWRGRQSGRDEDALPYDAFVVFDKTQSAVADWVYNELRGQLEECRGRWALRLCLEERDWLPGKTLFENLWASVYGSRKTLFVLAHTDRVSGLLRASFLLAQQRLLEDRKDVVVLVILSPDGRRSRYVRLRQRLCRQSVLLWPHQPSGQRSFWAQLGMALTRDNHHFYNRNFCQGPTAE
From the text: as §1, §2

Compound | EC50 (TLR7) | EC50 (TLR9)
Cc1cc(-c2[nH]c3cc(-c4cnc5c(c4)CCNC5)ccc3c2C)cc(C)n1 [Example 181, 3-[2-(2,6-dimethyl-4-pyridyl)-3-methyl-1H-indol-6-yl]-5,6,7,8-tetrahydro-1,7-naphthyridine] | 48.3 nM | 35.2 nM
Cc1cc(-c2[nH]c3cc(-c4ccc(N5CCNC6(CC6)C5)nc4)ccc3c2C)cc(C)n1 [Example 22, 6-(6-(4,7-diazaspiro[2.5]octan-7-yl)pyridin-3-yl)-2-(2,6-dimethylpyridin-4-yl)-3-methyl-1H-indole] | 64.4 nM | 153 nM
CNC(=O)CN1CCN(c2ccc(-c3ccc4c(C)c(-c5cc(C)nc(C)c5)[nH]c4c3)cn2)CC1 [Example 113, 2-(4-(5-(2-(2,6-dimethylpyridin-4-yl)-3-methyl-1H-indol-6-yl)pyridin-2-yl)piperazin-1-yl)-N-methylacetamide] | 68.8 nM | 123 nM
Cc1cc(-c2[nH]c3cc(-c4ccc(C(=O)N5CCC(N)CC5)cc4)ccc3c2C)cc(C)n1 [Example 125] | 74.8 nM | 98.3 nM
Cc1cc(-c2[nH]c3cc(-c4ccnc(N(C)C)c4)ccc3c2C)cc(C)n1 [Example 61] | 886 nM | 601 nM
COc1cc(-c2[nH]c3cc(-c4ccc(N5CCNCC5)nc4)ccc3c2C)cc(C)n1 [Example 79] | 10.9 nM | 994 nM
Cc1cc(-c2[nH]c3cc(-c4ccc(N5CCNCC5)nc4)ccc3c2C)ccn1 [Example 73, 3-methyl-2-(2-methylpyridin-4-yl)-6-(6-(piperazin-1-yl)pyridin-3-yl)-1H-indole] | 33.3 nM | 102 nM
Cc1cc(-c2[nH]c3cc(-c4ccc(N5CCN(CC(=O)N(C)C)CC5)nc4)ccc3c2C)cc(C)n1 [Example 116] | 140 nM | 67.9 nM
Cc1cc(-c2[nH]c3cc(-c4ccn5ncnc5c4)ccc3c2C)cc(C)n1 [Example 58] | 373 nM | 1130 nM
2-(2,6-dimethylpyridin-4-yl)-3-methyl-6-(1′,2′,3′,6′-tetrahydro-[2,4′-bipyridin]-5-yl)-1H-indole [Example 133] | 24.8 nM | 50.4 nM
Cc1cc(-c2[nH]c3cc(-c4ccc(N)nc4)ccc3c2C)cc(C)n1 [Example 5] | 154 nM | 227 nM
Cc1cc(-c2[nH]c3cc(-c4ccc5c(c4)CNC5)ccc3c2C)cc(C)n1 [Example 15] | 53.6 nM | 55.6 nM
Cc1cc(-c2[nH]c3cc(-c4ccc5ncn(C6CCNCC6)c5c4)ccc3c2C)cc(C)n1 [Example 166] | 144 nM | 522 nM
Cc1cc(-c2[nH]c3cc(-c4ccc(N5CCC(N)CC5)nc4)ccc3c2C2CC2)cc(C)n1 [Example 104, 1-(5-(3-cyclopropyl-2-(2,6-dimethylpyridin-4-yl)-1H-indol-6-yl)pyridin-2-yl)piperidin-4-amine] | 8.3 nM | 44.1 nM
Cc1cc(-c2[nH]c3cc(-c4ccc(N5CCNCC5)nc4)ccc3c2C)c2cccnc2n1 [Example 99] | 1.8 nM | 548 nM
Cc1cc(-c2[nH]c3cc(-c4cn(C5CCNCC5)nc4C)ccc3c2C)cc(C)n1 [Example 11] | 345 nM | 228 nM
Cc1cc(-c2[nH]c3cc(-c4ccc(C5=CCNCC5)nc4)ccc3c2C)cc(C)n1 [Example 132, 2-(2,6-dimethylpyridin-4-yl)-3-methyl-6-(1′,2′,3′,6′-tetrahydro-[2,4′-bipyridin]-5-yl)-1H-indole] | 5.1 nM | 10.6 nM
Cc1cc(-c2[nH]c3cc(-c4ccc5nc([C@@H]6CCCNC6)[nH]c5c4)ccc3c2C)cc(C)n1 [Example 160] | 30.7 nM | 566 nM
Cc1cc(-c2[nH]c3cc(-c4ccc5[nH]c(C6CCNCC6)nc5c4)ccc3c2C)cc(C)n1 [Example 147, 5-[2-(2,6-dimethyl-4-pyridyl)-3-methyl-1H-indol-6-yl]-2-(4-piperidyl)-1H-benzimidazole] | > 1000 nM | 1350 nM
Cc1cc(-c2[nH]c3cc(-c4ccc(N5CCC(N)CC5)nc4)ccc3c2C)cc(C)n1 [Example 21, 1-(5-(2-(2,6-dimethylpyridin-4-yl)-3-methyl-1H-indol-6-yl)pyridin-2-yl)piperidin-4-amine] | 8.6 nM | 28.3 nM
Cc1cc(-c2[nH]c3cc(C(=O)N[C@H]4CCCNC4)ccc3c2C)cc(C)n1 [Example 179] | 334 nM | 211 nM
Cc1cc(-c2[nH]c3cc(-c4cnn5c4CNCC5)ccc3c2C)cc(C)n1 [Example 10] | 210 nM | 392 nM
Cc1c(-c2ccnc(C#N)c2)[nH]c2cc(-c3ccc(N4CCNCC4)nc3)ccc12 [Example 75] | 77.3 nM | 499 nM
Cc1cc(-c2[nH]c3cc(-c4ccnc(N5CCN(C)CC5)c4)ccc3c2C)cc(C)n1 [Example 60, 2-(2,6-dimethylpyridin-4-yl)-3-methyl-6-(2-(4-methylpiperazin-1-yl)pyridin-4-yl)-1H-indole] | 270 nM | 110 nM
Cc1cc(-c2[nH]c3cc(-c4ccc(N5CCN(C6COC6)CC5)nc4)ccc3c2C)cc(C)n1 [Example 38] | 273 nM | 382 nM
Cc1cc(-c2[nH]c3cc(C#CC4CCNCC4)ccc3c2C)cc(C)n1 [Example 100, 2-(2,6-dimethylpyridin-4-yl)-3-methyl-6-(piperidin-4-ylethynyl)-1H-indole] | 437 nM | 101 nM
Cc1cc(-c2[nH]c3cc(-c4ccc(N5C[C@H]6CC[C@@H](C5)[C@@H]6N)nc4)ccc3c2C)cc(C)n1 [Example 28] | 63 nM | 69.9 nM
